In data set [1] the target is Glucagon-like peptide 1 receptor (Homo sapiens, UniProt P43220). Kind of data set: Agonist activity at human GLP1R expressed in HEK293 cells after 5 hrs by luciferase reporter gene assay. It counts as cell-based. (Reporter assays use an easily measured gene product as a stand-in for the process of interest.)
Data set [2] concerns HEK293. The experiment in a line: Selectivity ratio of EC50 for human GLP1R expressed in HEK293 cells to EC50 for human GLP2R expressed in HEK293. In kind it is cell-based.
The target of data set [3] is T1, Glucagon-like peptide 2 receptor (Homo sapiens, UniProt O95838).
T1 sequence (O95838 whole entry): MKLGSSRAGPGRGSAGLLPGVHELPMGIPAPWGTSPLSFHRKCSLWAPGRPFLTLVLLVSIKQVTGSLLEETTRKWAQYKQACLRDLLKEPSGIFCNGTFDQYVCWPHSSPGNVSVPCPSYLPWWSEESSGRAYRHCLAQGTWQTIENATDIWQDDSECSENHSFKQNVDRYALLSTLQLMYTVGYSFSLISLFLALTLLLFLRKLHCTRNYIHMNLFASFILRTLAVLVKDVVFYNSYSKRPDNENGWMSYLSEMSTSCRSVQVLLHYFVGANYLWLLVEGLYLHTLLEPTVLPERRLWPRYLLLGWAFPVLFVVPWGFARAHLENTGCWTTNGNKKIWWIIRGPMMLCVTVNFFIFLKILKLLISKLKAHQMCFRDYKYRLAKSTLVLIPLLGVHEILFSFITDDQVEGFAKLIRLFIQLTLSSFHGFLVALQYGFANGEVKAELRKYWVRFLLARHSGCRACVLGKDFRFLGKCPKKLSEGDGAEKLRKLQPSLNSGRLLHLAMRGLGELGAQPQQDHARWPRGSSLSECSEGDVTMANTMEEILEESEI
The experiment in a line: Agonist activity at human GLP2R expressed in HEK293 cells after 5 hrs by luciferase reporter gene assay. In kind it is cell-based.

A short description of data set [4]: Systemic clearance in Sprague-Dawley rat at 0.2 mg/kg, iv through cassette dosing measured up to 300 mins by LC/MS/MS analysis. It counts as ADME, organism-based. The following applies: in vivo.
Data set [5] has as its target Glucagon receptor (Homo sapiens) (UniProt P47871). The experiment in a line: Agonist activity at human GCGR expressed in HEK293 cells after 5 hrs by luciferase reporter gene assay. In kind it is cell-based.

For orientation: EC50 means the concentration that produces a half-maximal response. Low values mean greater potency, high ones weaker potency. One may read the clearance as the volume of plasma or blood freed of the substance per unit of time. A low value points to inefficient removal.

Active and inactive are the calls of the source. The rule behind the calls is not given here. A value given as a limit tells only on which side of the number the result lay.

Chain of Glucagon-like peptide 1 receptor (P43220 whole entry): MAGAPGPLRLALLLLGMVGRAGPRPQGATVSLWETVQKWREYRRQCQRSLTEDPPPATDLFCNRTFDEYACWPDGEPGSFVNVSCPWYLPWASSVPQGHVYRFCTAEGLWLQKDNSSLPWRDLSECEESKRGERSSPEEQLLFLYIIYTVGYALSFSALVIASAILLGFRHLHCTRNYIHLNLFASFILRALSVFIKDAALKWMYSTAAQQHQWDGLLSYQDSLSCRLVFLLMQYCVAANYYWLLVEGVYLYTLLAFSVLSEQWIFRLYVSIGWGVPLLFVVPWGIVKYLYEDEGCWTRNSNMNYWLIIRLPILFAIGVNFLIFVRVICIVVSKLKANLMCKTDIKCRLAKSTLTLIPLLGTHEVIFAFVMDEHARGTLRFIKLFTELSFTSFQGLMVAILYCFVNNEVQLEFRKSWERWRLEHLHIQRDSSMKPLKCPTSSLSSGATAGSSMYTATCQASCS
Chain of Glucagon receptor (Homo sapiens) (P47871 whole entry): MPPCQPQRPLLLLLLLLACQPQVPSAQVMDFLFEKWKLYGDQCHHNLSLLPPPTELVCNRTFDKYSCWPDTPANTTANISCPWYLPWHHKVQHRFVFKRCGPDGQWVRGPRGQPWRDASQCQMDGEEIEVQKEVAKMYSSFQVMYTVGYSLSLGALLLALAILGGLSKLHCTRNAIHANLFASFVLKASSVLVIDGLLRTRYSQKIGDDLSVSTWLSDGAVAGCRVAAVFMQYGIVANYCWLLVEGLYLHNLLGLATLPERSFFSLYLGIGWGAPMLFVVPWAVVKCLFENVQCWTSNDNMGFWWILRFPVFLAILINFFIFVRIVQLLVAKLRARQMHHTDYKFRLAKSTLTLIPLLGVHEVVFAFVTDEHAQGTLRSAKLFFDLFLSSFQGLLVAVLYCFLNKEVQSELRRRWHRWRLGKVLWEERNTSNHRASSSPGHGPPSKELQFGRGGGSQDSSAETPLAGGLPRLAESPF

With `CCCCC(NC(=O)[C@H](CCC(=O)O)NC(=O)[C@H](CC(=O)O)NC(=O)[C@H](CO)NC(=O)[C@H](Cc1ccccc1)NC(=O)[C@H](CO)NC(=O)CNC(=O)[C@H](CC(=O)O)NC(=O)CNC(=O)[C@@H](N)Cc1cnc[nH]1)C(=O)N[C@H](Cc1ccccc1)C(=O)N[C@H](C(=O)N[C@H](C(=O)N[C@@H](CC(C)C)C(=O)N[C@@H](CC(=O)O)C(=O)N[C@@H](Cc1ccccc1)C(=O)N[C@@H](CC(C)C)C(=O)N[C@@H](C)C(=O)N[C@@H](C)C(=O)N[C@@H](CCCNC(=N)N)C(=O)N[C@@H](CC(=O)O)C(=O)N[C@@H](Cc1ccccc1)C(=O)N[C@H](C(=O)N[C@@H](CC(N)=O)C(=O)N[C@@H](Cc1c[nH]c2ccccc12)C(=O)N[C@@H](CC(C)C)C(=O)N[C@H](C(=O)N[C@@H](CCC(N)=O)C(=O)N[C@H](C(=O)N[C@@H](CCCCN)C(=O)N[C@H](C(=O)N[C@H](C(=O)N[C@@H](CC(=O)O)C(N)=O)[C@@H](C)O)[C@@H](C)CC)[C@@H](C)O)[C@@H](C)CC)[C@@H](C)CC)[C@@H](C)CC)[C@@H](C)O` (some centres not stated), the EC50 in data set [1] was above 1000 nM; in data set [3] it was 0.06 nM. In addition, the Ratio EC50 in data set [2] is above 16000. The compound also displayed a clearance in data set [4] of 0.24 mL/min/kg.

Turning to `CCCCC(NC(=O)[C@H](CCC(=O)O)NC(=O)[C@H](CC(=O)O)NC(=O)[C@H](CO)NC(=O)[C@H](Cc1ccccc1)NC(=O)[C@H](CO)NC(=O)CNC(=O)[C@H](CC(=O)O)NC(=O)CNC(=O)[C@@H](N)Cc1cnc[nH]1)C(=O)N[C@H](Cc1cccs1)C(=O)N[C@H](C(=O)N[C@H](C(=O)N[C@@H](CC(C)C)C(=O)N[C@@H](CC(=O)O)C(=O)N[C@@H](CC(C)C)C(=O)N[C@@H](CC(C)C)C(=O)N[C@@H](C)C(=O)N[C@@H](C)C(=O)N[C@@H](CCCNC(=N)N)C(=O)N[C@@H](CC(=O)O)C(=O)N[C@@H](Cc1ccccc1)C(=O)N[C@H](C(=O)N[C@@H](CC(N)=O)C(=O)N[C@@H](Cc1c[nH]c2ccccc12)C(=O)N[C@@H](CC(C)C)C(=O)N[C@H](C(=O)N[C@@H](CCC(N)=O)C(=O)N[C@H](C(=O)N[C@@H](CCCCN)C(N)=O)[C@@H](C)O)[C@@H](C)CC)[C@@H](C)CC)[C@@H](C)CC)[C@@H](C)O` (some centres not stated), the EC50 was above 1000 nM in data set [1] and 0.08 nM in data set [3]. For the same compound, the Ratio EC50 in data set [2] was above 12000. The compound further came in with a clearance in data set [4] of 0.33 mL/min/kg.

On to `CCCCC(NC(=O)[C@H](CCC(=O)O)NC(=O)[C@H](CC(=O)O)NC(=O)[C@H](CO)NC(=O)[C@H](Cc1ccccc1)NC(=O)[C@H](CO)NC(=O)CNC(=O)[C@H](CC(=O)O)NC(=O)CNC(=O)[C@@H](N)Cc1cnc[nH]1)C(=O)N[C@H](Cc1ccccc1)C(=O)N[C@H](C(=O)N[C@H](C(=O)N[C@@H](CC(C)C)C(=O)N[C@@H](CC(=O)O)C(=O)N[C@@H](CC(C)C)C(=O)N[C@@H](CC(C)C)C(=O)N[C@@H](C)C(=O)N[C@H](C(=O)N[C@@H](CCCNC(=N)N)C(=O)N[C@@H](CC(=O)O)C(=O)N[C@@H](Cc1ccccc1)C(=O)N[C@H](C(=O)N[C@@H](CC(N)=O)C(=O)N[C@@H](Cc1c[nH]c2ccccc12)C(=O)N[C@@H](CC(C)C)C(=O)N[C@H](C(=O)N[C@@H](CCC(N)=O)C(=O)N[C@H](C(=O)N[C@@H](CCCCN)C(N)=O)[C@@H](C)O)[C@@H](C)CC)[C@@H](C)CC)[C@@H](C)O)[C@@H](C)CC)[C@@H](C)O` (some centres not stated), for which the EC50 in data set [1] stood at 130 nM; in data set [3], 0.04 nM. For the same compound, in data set [2], the Ratio EC50 was 3200. In data set [4], the clearance is 0.49 mL/min/kg.

On to `CCCCC(NC(=O)[C@H](CCC(=O)O)NC(=O)[C@H](CC(=O)O)NC(=O)[C@H](CO)NC(=O)[C@H](Cc1ccccc1)NC(=O)[C@H](CO)NC(=O)CNC(=O)[C@H](CC(=O)O)NC(=O)CNC(=O)[C@@H](N)Cc1cnc[nH]1)C(=O)N[C@H](Cc1ccccc1)C(=O)N[C@H](C(=O)N[C@H](C(=O)N[C@@H](CC(C)C)C(=O)N[C@@H](CC(=O)O)C(=O)N[C@@H](CC(C)C)C(=O)N[C@@H](CC(C)C)C(=O)N[C@@H](C)C(=O)N[C@@H](C)C(=O)N[C@@H](CCCNC(=N)N)C(=O)N[C@@H](CC(=O)O)C(=O)N[C@@H](Cc1ccccc1)C(=O)N[C@H](C(=O)N[C@@H](CC(N)=O)C(=O)N[C@@H](Cc1c[nH]c2ccccc12)C(=O)N[C@@H](CC(C)C)C(=O)N[C@H](C(=O)N[C@@H](CCC(N)=O)C(=O)N[C@H](C(=O)N[C@@H](CCCCN)C(=O)N[C@H](C(=O)N[C@H](C(=O)N[C@@H](CC(=O)O)C(=O)NCc1ccncc1)[C@@H](C)O)[C@@H](C)CC)[C@@H](C)O)[C@@H](C)CC)[C@@H](C)CC)[C@@H](C)CC)[C@@H](C)O` (some centres not stated), for which the EC50 is above 1000 nM in data set [1] and 0.04 nM in data set [3]. The Ratio EC50 in data set [2] is above 25000. For the same compound, the clearance in data set [4] came to 0.27 mL/min/kg.

As to `CCCC[C@H](NC(=O)[C@H](CCC(=O)O)NC(=O)[C@H](CC(=O)O)NC(=O)[C@H](CO)NC(=O)[C@H](Cc1ccccc1)NC(=O)[C@H](CO)NC(=O)CNC(=O)[C@H](CC(=O)O)NC(=O)CNC(=O)[C@@H](N)Cc1cnc[nH]1)C(=O)N[C@@H](CC(N)=O)C(=O)N[C@H](C(=O)N[C@H](C(=O)N[C@@H](CC(C)C)C(=O)N[C@@H](CC(=O)O)C(=O)N[C@@H](Cc1ccc(Cl)cc1)C(=O)N[C@@H](CC(C)C)C(=O)N[C@@H](C)C(=O)N[C@@H](C)C(=O)N[C@@H](CCCNC(=N)N)C(=O)N[C@@H](CC(=O)O)C(=O)N[C@@H](Cc1ccccc1)C(=O)N[C@H](C(=O)N[C@@H](CC(N)=O)C(=O)N[C@@H](Cc1c[nH]c2ccccc12)C(=O)N[C@@H](CC(C)C)C(=O)N[C@H](C(=O)N[C@@H](CCC(N)=O)C(=O)N[C@H](C(=O)N[C@@H](CCCCN)C(N)=O)[C@@H](C)O)[C@@H](C)CC)[C@@H](C)CC)[C@@H](C)CC)[C@@H](C)O`, the concentration giving a half-maximal response (EC50) was above 1000 nM in data set [1] and 0.22 nM in data set [3]. Also, the clearance in data set [4] is 0.67 mL/min/kg.

With `CCCCC(NC(=O)[C@H](CCC(=O)O)NC(=O)[C@H](CC(=O)O)NC(=O)[C@H](CO)NC(=O)[C@H](Cc1ccccc1)NC(=O)[C@H](CO)NC(=O)CNC(=O)[C@H](CC(=O)O)NC(=O)CNC(=O)[C@@H](N)Cc1cnc[nH]1)C(=O)N[C@H](Cc1cccc(Cl)c1)C(=O)N[C@H](C(=O)N[C@H](C(=O)N[C@@H](CC(C)C)C(=O)N[C@@H](CC(=O)O)C(=O)N[C@@H](Cc1ccccc1)C(=O)N[C@@H](CC(C)C)C(=O)N[C@@H](C)C(=O)N[C@@H](C)C(=O)N[C@@H](CCCNC(=N)N)C(=O)N[C@@H](CC(=O)O)C(=O)N[C@@H](Cc1ccccc1)C(=O)N[C@H](C(=O)N[C@@H](CC(N)=O)C(=O)N[C@@H](Cc1c[nH]c2ccccc12)C(=O)N[C@@H](CC(C)C)C(=O)N[C@H](C(=O)N[C@@H](CCC(N)=O)C(=O)N[C@H](C(=O)N[C@@H](CCCCN)C(=O)N[C@H](C(=O)N[C@H](C(=O)N[C@@H](CC(=O)O)C(N)=O)[C@@H](C)O)[C@@H](C)CC)[C@@H](C)O)[C@@H](C)CC)[C@@H](C)CC)[C@@H](C)CC)[C@@H](C)O` (some centres not stated), the results for the concentration for a half-maximal effect (EC50) in data set [1] and in data set [3] were above 1000 nM and 0.13 nM, respectively. Also, the Ratio EC50 in data set [2] was above 7600. In data set [4], this compound displayed a clearance of 0.12 mL/min/kg.

As to `CCCCC(NC(=O)[C@H](CCC(=O)O)NC(=O)[C@H](CC(=O)O)NC(=O)[C@H](CO)NC(=O)[C@H](Cc1ccccc1)NC(=O)[C@H](CO)NC(=O)CNC(=O)[C@H](CC(=O)O)NC(=O)CNC(=O)[C@@H](N)Cc1cnc[nH]1)C(=O)N[C@H](CC(C)C)C(=O)N[C@H](C(=O)N[C@H](C(=O)N[C@@H](CC(C)C)C(=O)N[C@@H](CC(=O)O)C(=O)N[C@@H](CC(N)=O)C(=O)N[C@@H](CC(C)C)C(=O)N[C@@H](C)C(=O)N[C@@H](C)C(=O)N[C@@H](CCCNC(=N)N)C(=O)N[C@@H](CC(=O)O)C(=O)N[C@@H](Cc1ccccc1)C(=O)N[C@H](C(=O)N[C@@H](CC(N)=O)C(=O)N[C@@H](Cc1c[nH]c2ccccc12)C(=O)N[C@@H](CC(C)C)C(=O)N[C@H](C(=O)N[C@@H](CCC(N)=O)C(=O)N[C@H](C(=O)N[C@@H](CCCCN)C(N)=O)[C@@H](C)O)[C@@H](C)CC)[C@@H](C)CC)[C@@H](C)CC)[C@@H](C)O` (some centres not stated), the result in data set [5] was inactive.

As for `CCCCC(NC(=O)[C@H](CCC(=O)O)NC(=O)[C@H](CC(=O)O)NC(=O)[C@H](CO)NC(=O)[C@H](Cc1ccccc1)NC(=O)[C@H](CO)NC(=O)CNC(=O)[C@H](CC(=O)O)NC(=O)CNC(=O)[C@@H](N)Cc1cnc[nH]1)C(=O)N[C@H](Cc1cccs1)C(=O)N[C@H](C(=O)N[C@H](C(=O)N[C@@H](CC(C)C)C(=O)N[C@@H](CC(=O)O)C(=O)N[C@@H](Cc1ccc(O)cc1)C(=O)N[C@@H](CC(C)C)C(=O)N[C@@H](C)C(=O)N[C@@H](C)C(=O)N[C@@H](CCCNC(=N)N)C(=O)N[C@@H](CC(=O)O)C(=O)N[C@@H](Cc1ccccc1)C(=O)N[C@H](C(=O)N[C@@H](CC(N)=O)C(=O)N[C@@H](Cc1c[nH]c2ccccc12)C(=O)N[C@@H](CC(C)C)C(=O)N[C@H](C(=O)N[C@@H](CCC(N)=O)C(=O)N[C@H](C(=O)N[C@@H](CCCCN)C(N)=O)[C@@H](C)O)[C@@H](C)CC)[C@@H](C)CC)[C@@H](C)CC)[C@@H](C)O` (some centres not stated), the EC50 came to 70 nM in data set [1] and 0.07 nM in data set [3]. The same compound gave a clearance in data set [4] of 0.52 mL/min/kg.

(Values after ChEMBL document CHEMBL3822442, “Synthesis and Pharmacological Characterization of Novel Glucagon-like Peptide-2 (GLP-2) Analogues with Low Systemic Clearance” (J Med Chem, 2016).)
